For 18 compounds, melting point results are on record in patent publication US20020177594A1, “Inhibitors of histone deacetylase” (priority 2001, published 2002).

`O=C(CCCCCCSc1ccccc1)c1ncco1` [Example 102, 1-(1,3-oxazol-2-yl)-7-(phenylsulfanyl)-1-heptanone] displayed a melting point of 39 to 40 °C.

`CNC(=O)C(=O)CCCCCCSc1nc2ccccc2s1` [Example 184, 8-(1,3-benzothiazol-2-ylthio)-N-methyl-2-oxooctanamide] had a melting point of 83 to 84 °C.

Take `CNC(=O)C(=O)CCCCCCSc1nc(-c2ccccc2)cs1` [Example 183, N-methyl-2-oxo-8-((4-phenyl-1,3-thiazol-2-yl)thio)octanamide]: the melting point lay within 107 to 108 °C.

As to `O=C(CCCCCCS(=O)(=O)c1ccc2ccccc2c1)c1ncco1` [Example 105, 7-(2-naphthylsulfonyl)-1-(1,3-oxazol-2-yl)-1-heptanone], the melting point was 75 to 76 °C.

As for `O=C(NCCCCCCC(=O)c1ncco1)c1cc2ccccc2[nH]1` [Example 110, N-(7-(1,3-oxazol-2-yl)-7-oxoheptyl)-1H-indole-2-carboxamide], the melting point is 153 to 156 °C.

Take `CNC(=O)C(=O)CCCCCCc1csc(-c2ccccc2)n1` [Example 196, N-methyl-2-oxo-8-(2-phenyl-1,3-thiazol-4-yl)octanamide]: the melting point was 70 to 72 °C.

As for `CNC(=O)C(=O)CCCCCCc1cnc(-c2ccccc2)o1` [Example 199, N-methyl-2-oxo-8-(2-phenyl-1,3-oxazol-5-yl)octanamide], the melting point lay in the range of 78 to 80 °C.

`O=C(CCCCCCS(=O)(=O)c1ccccc1)c1ncco1` [Example 103, 1-(1,3-oxazol-2-yl)-7-(phenylsulfonyl)-1-heptanone] displayed a melting point of 55 to 56 °C.

Consider `CNC(=O)C(=O)CCCCCCSc1ccc2ccccc2c1` [Example 106, N-methyl-8-(2-naphthylsulfanyl)-2-oxooctanamide], for which the melting point was 94 to 95 °C.

For `O=C(NCCCCCC(=O)C(F)(F)F)OCC1c2ccccc2-c2ccccc21` [Example 89, 9H-fluoren-9-ylmethyl 7,7,7-trifluoro-6-oxoheptylcarbamate], the melting point lay in the range of 83 to 88 °C.

`CNC(=O)C(=O)CCCCCCc1cnc(-c2ccc(Br)cc2)o1` [Example 217, 8-(2-(4-bromophenyl)-1,3-oxazol-5-yl)-N-methyl-2-oxooctanamide] came in with a melting point of 90 to 92 °C.

`CNC(=O)C(=O)CCCCCCS(=O)(=O)c1ccc2ccccc2c1` [Example 107, N-methyl-8-(2-naphthylsulfonyl)-2-oxooctanamide] gave a melting point of 108 to 109 °C.

Turning to `O=C(NCCCCCC(=O)c1ncco1)c1cc2ccccc2[nH]1` [Example 111, N-(6-(1,3-oxazol-2-yl)-6-oxohexyl)-1H-indole-2-carboxamide], the melting point was 176 to 179 °C.

The compound `CNC(=O)C(=O)CCCCCO/N=C/c1ccc(-c2ccccc2)cc1` [Example 198, 7-((((1E)-1,1′-biphenyl-4-ylmethylidene)amino)oxy)-N-methyl-2-oxoheptanamide] showed a melting point of 86 to 87 °C.

In turn, `CC(=O)C(=O)CCCCCCOc1ccc(-c2ccccc2)cc1` [Example 113, 9-((1,1′-biphenyl)-4-yloxy)-2,3-nonanedione] registered a melting point of 110 to 111 °C.

`CNC(=O)C(=O)CCCCCCc1csc(-c2ccc(Cl)cc2)n1` [Example 218, 8-(2-(4-chlorophenyl)-1,3-thiazol-4-yl)-N-methyl-2-oxooctanamide] had a melting point of 77 to 81 °C.

Turning to `CNC(=O)C(=O)CCCCCCSc1ccc(-c2ccccc2)cc1` [Example 108, 8-((1,1′-biphenyl)-4-ylsulfanyl)-N-methyl-2-oxooctanamide], the melting point lay in the range of 131 to 132 °C.

`O=C(CCCCCCSc1ccc2ccccc2c1)c1ncco1` [Example 104, 7-(2-naphthylsulfanyl)-1-(1,3-oxazol-2-yl)-1-heptanone] came in with a melting point of 65 to 66 °C.
